Where a name gives a salt, the structure may show the parent alone. Active and inactive are the calls of the source.
Experiments:
[1] = P. falciparum Dd2 growth inhibitors, dose response, SYBR Green, cherry-picked samples (AID 1159567); format: functional, cell-based
[2] = HepG2 cell cytotoxicity, dose response, cytotoxicity control, cherry-picked samples (AID 1159577); format: functional, cell-based
[3] = cytotoxicity in MIN6 insulinoma cells, dose response, cytotoxicity control, cell-based, mouse insulinoma (AID 2122); format: functional;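 further: confirmatory high-throughput counterscreen run to flag cytotoxic compounds; mouse MIN-6 beta cells carrying an insulin promoter eGFP reporter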
[4] = insulin promoter down-regulators in MIN6 cells, imaging, high-content screening, mouse beta cells (AID 1628); format: functional
[5] = target: Voltage-gated inwardly rectifying potassium channel KCNH2 (Homo sapiens, UniProt Q12809); settings: Potency;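 further: confirmatory quantitative high-throughput screen measuring inhibition of hERG channel activity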
Chain of Voltage-gated inwardly rectifying potassium channel KCNH2 (Q12809 whole entry): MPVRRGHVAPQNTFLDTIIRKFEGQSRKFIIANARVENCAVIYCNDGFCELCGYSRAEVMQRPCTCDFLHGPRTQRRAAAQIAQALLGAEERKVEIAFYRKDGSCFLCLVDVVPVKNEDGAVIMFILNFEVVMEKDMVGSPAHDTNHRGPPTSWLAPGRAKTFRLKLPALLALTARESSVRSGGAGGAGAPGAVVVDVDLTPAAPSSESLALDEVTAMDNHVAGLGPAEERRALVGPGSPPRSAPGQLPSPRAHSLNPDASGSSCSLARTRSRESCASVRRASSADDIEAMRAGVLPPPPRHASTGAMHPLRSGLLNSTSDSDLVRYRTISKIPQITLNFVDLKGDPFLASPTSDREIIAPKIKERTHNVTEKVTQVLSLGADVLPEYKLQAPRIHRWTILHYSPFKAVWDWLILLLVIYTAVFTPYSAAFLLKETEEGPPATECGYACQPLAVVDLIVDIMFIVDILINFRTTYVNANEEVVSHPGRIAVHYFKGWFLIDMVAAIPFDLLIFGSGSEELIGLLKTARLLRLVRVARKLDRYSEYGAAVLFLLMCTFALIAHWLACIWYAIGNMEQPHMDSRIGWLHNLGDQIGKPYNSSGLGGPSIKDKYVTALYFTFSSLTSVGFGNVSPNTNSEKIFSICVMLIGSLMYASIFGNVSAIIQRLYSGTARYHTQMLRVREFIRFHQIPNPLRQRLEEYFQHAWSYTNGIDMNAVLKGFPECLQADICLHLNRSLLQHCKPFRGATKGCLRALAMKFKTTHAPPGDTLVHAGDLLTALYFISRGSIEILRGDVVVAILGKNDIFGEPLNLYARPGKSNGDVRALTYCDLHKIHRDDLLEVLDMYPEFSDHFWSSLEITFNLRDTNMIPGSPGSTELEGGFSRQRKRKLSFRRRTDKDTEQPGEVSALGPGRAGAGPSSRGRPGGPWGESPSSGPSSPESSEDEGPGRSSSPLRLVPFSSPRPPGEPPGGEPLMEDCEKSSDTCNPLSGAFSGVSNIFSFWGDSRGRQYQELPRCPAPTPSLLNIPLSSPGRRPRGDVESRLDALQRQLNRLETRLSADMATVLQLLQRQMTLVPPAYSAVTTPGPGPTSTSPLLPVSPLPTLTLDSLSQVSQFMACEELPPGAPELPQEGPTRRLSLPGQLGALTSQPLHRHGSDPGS

[6] = HepG2 cell cytotoxicity, dose response, cytotoxicity control, plate reader, dry powder samples (AID 1159569); format: functional, cell-based;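 further: inhibitor potency with signal falling toward the positive control level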
[7] = P. falciparum ATP4 D1247Y mutant growth inhibitors, dose response, NITD609-resistant line, SYBR Green, dry powder (AID 1159571); format: functional, cell-based;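 further: parasites synchronized at ring stage by sorbitol before testing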
[8] = P. falciparum 3D7-ScDHODH growth inhibitors, dose response, SYBR Green, dry powder samples (AID 1159570); format: functional, cell-based;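 further: parasite growth measured after 72 hours of compound exposure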
[9] = P. falciparum Dd2 growth inhibitors, dose response, SYBR Green, dry powder samples (AID 1159566); format: functional, cell-based;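 further: potency for growth inhibition with lower SYBR green DNA signal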
[10] = target: DNA dC->dU-editing enzyme APOBEC-3G (Homo sapiens, UniProt Q9HC16); experiment: Dose Response confirmation of small molecule APOBEC3G DNA Deaminase Inhibitors via a fluorescence-based single-stranded DNA deaminase assay. [Related pubchem assays (depositor defined):AID493012, AID493028]; format: functional
Chain of DNA dC->dU-editing enzyme APOBEC-3G (Q9HC16 whole entry): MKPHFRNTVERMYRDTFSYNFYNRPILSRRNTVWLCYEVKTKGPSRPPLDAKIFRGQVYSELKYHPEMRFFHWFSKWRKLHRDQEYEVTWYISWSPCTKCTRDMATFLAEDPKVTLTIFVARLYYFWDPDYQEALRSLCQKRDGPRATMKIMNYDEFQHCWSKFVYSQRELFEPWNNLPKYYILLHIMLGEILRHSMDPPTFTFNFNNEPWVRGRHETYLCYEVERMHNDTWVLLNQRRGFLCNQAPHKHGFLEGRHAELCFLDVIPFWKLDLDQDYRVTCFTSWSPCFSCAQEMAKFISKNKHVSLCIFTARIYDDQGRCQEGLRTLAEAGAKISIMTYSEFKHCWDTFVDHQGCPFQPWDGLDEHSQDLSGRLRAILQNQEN

[11] = target: DNA dC->dU-editing enzyme APOBEC-3A (Homo sapiens, UniProt P31941); experiment: APOBEC3A DNA deaminase inhibitors, dose response, biochemical (AID 504722); format: functional
Chain of DNA dC->dU-editing enzyme APOBEC-3A (P31941 whole entry): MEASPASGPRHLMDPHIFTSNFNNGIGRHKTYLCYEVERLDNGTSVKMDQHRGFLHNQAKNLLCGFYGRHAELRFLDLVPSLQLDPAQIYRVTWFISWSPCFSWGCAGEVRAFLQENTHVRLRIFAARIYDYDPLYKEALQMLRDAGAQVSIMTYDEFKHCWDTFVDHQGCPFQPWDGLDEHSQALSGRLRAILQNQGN

cells [12] = format: functional, cell-based
[13] = target: 5-hydroxytryptamine receptor 2A (Mus musculus, UniProt P35363); format: functional, cell-based;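 further: CHO-K1 cells with tagged receptor and beta-arrestin; agonist potency measured as compound-induced activation of the receptor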
Chain of 5-hydroxytryptamine receptor 2A (P35363 whole entry): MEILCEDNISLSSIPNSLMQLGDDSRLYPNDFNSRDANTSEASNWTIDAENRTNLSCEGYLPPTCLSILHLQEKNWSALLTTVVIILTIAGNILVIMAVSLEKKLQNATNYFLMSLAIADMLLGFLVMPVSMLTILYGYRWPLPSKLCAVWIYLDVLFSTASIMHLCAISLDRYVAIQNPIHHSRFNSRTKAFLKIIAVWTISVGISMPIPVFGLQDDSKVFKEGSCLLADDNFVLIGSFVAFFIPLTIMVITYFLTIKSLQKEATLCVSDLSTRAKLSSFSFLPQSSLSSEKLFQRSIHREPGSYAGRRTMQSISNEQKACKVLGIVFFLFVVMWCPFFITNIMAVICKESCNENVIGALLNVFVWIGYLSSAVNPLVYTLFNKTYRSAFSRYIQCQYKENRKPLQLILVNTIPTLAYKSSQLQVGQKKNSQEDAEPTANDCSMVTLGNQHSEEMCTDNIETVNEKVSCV

[14] = target: T1, Nuclear receptor subfamily 0 group B member 1 (Homo sapiens, UniProt P51843); format: functional, cell-based;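 further: HEK293T cells transfected with SF-1 and DAX-1 plus StAR promoter luciferase reporter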
T1 sequence (P51843 whole entry): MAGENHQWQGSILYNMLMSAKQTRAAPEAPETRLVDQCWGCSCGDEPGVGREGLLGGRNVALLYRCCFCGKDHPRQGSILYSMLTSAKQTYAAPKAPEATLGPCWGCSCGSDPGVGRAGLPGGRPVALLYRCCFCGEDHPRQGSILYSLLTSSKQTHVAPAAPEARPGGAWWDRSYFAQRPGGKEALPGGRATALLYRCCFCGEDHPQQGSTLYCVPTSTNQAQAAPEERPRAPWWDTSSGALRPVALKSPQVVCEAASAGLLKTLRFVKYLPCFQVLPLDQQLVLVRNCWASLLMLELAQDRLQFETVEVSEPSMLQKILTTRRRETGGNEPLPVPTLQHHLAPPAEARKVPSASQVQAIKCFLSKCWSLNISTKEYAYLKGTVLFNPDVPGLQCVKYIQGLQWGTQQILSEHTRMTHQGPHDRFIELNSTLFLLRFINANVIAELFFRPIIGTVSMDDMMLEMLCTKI

[15] = system: Streptococcus sp. 'group A'; experiment: growth inhibition of control SK(-) GAS strain, dose response, counter-screen for streptokinase expression inhibitor project, luminescence, kanamycin, BacTiterGlo, confirmation (AID 1900); format: functional, organism-based
[16] = inhibitors of intracellular T. cruzi replication, confirmation, NIH3T3 host cells, beta-gal luminescence (AID 2044); format: functional, cell-based;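 further: intracellular parasites grown in NIH/3T3 mouse fibroblasts as host cells; luminescent beta-galactosidase reporter signal from transgenic T. cruzi replicating inside host cells; inhibitors lower the luminescence signal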
[17] = cytotoxicity toward NIH3T3 fibroblasts, dose response, counter-screen, cell-based, ATP luminescence, mouse fibroblasts (AID 2010); format: functional;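 further: cells exposed to compound for about 90 hours before reading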
Streptokinase A = target: T2, Streptokinase A (Streptococcus pyogenes serotype M1, UniProt P10520); experiment: S. pyogenes streptokinase expression inhibitors, potency, dose response, plasminogen activation absorbance, OD405 (AID 1914); format: functional, Streptococcus pyogenes M1 GAS;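 further: secreted streptokinase activity via plasminogen activation per viability signal from cell pellet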
T2 sequence (P10520 whole entry): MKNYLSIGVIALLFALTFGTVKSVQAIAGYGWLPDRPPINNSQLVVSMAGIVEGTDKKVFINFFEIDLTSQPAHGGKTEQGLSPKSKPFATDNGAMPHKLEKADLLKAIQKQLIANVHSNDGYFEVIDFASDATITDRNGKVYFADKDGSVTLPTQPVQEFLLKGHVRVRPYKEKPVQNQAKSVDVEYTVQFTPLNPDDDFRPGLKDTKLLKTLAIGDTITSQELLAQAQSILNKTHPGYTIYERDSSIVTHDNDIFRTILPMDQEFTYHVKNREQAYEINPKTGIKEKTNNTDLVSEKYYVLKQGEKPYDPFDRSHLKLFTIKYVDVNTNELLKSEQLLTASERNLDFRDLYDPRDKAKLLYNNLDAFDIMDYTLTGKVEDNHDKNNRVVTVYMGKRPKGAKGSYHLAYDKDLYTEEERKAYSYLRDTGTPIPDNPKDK

Streptococcus = experiment: Group A Streptococcus viability loss, dose response, counter-screen for streptokinase expression inhibitor project, luminescence, BacTiterGlo (AID 1915); format: functional, organism-based;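 further: potency for reduction of bacterial viability or growth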
[18] = HEp-2 cell cytotoxicity, dose response, cytotoxicity control for RSV inhibitor project, HTS (AID 2410); format: functional; settings: human respiratory syncytial virus
[19] = A Cell Based Secondary Assay To Explore Cytotoxicity of Compounds that Sensitize Mycobacterium Tuberculosis to Beta-Lactam Antibiotics.; format: functional
[20] = inhibitors of SNCA 5'UTR-driven reporter translation, confirmation, H4 neuroglioma cells, luminescence (AID 1988); format: functional, cell-based
Beta-galactosidase [21] = target: T3, Beta-galactosidase (Escherichia coli, UniProt Q8VNN2); experiment: beta-galactosidase enzyme inhibitors and activators, dose response, artefact control for CCR6 antagonist project, biochemical, E. coli enzyme, set 3 (AID 504712); format: functional
T3 sequence (Q8VNN2 whole entry): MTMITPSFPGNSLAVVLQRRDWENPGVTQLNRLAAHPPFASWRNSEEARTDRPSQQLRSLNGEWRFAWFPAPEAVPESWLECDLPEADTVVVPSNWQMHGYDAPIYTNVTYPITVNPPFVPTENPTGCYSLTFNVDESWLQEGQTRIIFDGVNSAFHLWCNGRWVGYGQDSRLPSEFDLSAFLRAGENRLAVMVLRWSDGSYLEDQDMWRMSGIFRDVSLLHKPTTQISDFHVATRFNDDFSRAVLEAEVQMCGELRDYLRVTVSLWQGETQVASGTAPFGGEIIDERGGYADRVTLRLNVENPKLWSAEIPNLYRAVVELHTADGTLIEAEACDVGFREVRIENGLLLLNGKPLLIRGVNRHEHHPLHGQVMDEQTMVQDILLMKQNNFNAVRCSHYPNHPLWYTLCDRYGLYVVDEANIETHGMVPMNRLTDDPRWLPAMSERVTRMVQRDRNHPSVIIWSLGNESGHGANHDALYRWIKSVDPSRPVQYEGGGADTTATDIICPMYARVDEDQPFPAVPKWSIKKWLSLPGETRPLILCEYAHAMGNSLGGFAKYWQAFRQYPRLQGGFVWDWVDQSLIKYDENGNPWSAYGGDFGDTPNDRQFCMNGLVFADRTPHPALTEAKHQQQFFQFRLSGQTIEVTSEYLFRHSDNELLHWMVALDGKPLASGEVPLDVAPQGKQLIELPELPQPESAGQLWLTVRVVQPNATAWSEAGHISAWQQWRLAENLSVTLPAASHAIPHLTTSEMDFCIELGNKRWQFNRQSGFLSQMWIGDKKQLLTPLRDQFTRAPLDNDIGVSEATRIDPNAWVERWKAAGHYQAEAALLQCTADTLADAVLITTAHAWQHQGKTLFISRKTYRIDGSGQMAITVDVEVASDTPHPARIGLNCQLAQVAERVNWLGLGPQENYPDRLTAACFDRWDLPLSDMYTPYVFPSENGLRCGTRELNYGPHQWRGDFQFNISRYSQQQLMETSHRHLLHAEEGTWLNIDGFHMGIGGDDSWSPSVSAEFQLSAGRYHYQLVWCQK

[22] = Luminescence Cell-Based Dose Response HTS to Identify Inhibitors of 5'UTR Stem-Loop Driven Prion Protein mRNA Translation in H4 Neuroglioblastoma Cells. [Related pubchem assays: 1827 (Project Summary), 1813 (Primary HTS)]; format: functional
[23] = inhibitors of firefly luciferase expression or activity, dose response, H4 neuroglioma cells, luminescence (AID 1990); format: functional, cell-based
Beta-galactosidase [24] = target: T3, Beta-galactosidase; experiment: PubChem AID 485352; format: functional
[25] = target: T4, Type-1 angiotensin II receptor (Homo sapiens, UniProt P30556); experiment: AT1 receptor antagonists, dose response, selectivity assay for APJ receptor antagonist project, cell-based, uHTS hits (AID 463214); format: functional;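 further: antagonist potency against angiotensin II stimulated AT1 response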
T4 sequence (P30556 whole entry): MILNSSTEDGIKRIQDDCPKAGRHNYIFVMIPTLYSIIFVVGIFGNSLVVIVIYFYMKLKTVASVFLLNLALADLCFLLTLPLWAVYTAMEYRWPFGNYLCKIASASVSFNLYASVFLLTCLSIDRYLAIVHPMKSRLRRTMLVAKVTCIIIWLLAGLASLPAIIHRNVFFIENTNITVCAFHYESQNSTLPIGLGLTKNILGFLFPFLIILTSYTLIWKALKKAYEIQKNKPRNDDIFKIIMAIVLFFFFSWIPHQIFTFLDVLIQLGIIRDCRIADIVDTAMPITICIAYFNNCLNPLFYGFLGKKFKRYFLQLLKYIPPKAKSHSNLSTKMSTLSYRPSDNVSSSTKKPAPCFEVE

[26] = Luminescence Cell-Based Dose Retest to Confirm Inhibitors of Cancer Stem Cells. [Related pubchem assays (depositor defined):AID2717, AID2721]; format: functional; settings: Homo sapiens
HEK293 [27] = experiment: NOD2 signaling inhibitors in MDP-stimulated cells, cell-based, uHTS, luminescence (AID 2001); format: functional; settings: Homo sapiens
HEK293 [28] = experiment: cells; format: functional, cell-based; settings: Homo sapiens
HEK293 [29] = experiment: cells; format: functional, cell-based; settings: Homo sapiens; remark: listed apart in the source
HEK293 [30] = experiment: NOD1 signaling inhibitors, primary screen, cell-based, luminescence, uHTS (AID 1578); format: functional; settings: Homo sapiens
[31] = target: T5, Oxysterols receptor LXR-beta (Homo sapiens, UniProt P55055); format: functional, cell-based;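 further: Cell-based luminescence dose-response assay of agonist activity at LXR, run as a confirmatory counterscreen to a daf-12 agonist screen; HEK293 cells with Gal4-LXR fusion and GAL4-driven luciferase reporter; agonist potency from rising luciferase signal of a Gal4-LXR reporter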
T5 sequence (P55055 whole entry): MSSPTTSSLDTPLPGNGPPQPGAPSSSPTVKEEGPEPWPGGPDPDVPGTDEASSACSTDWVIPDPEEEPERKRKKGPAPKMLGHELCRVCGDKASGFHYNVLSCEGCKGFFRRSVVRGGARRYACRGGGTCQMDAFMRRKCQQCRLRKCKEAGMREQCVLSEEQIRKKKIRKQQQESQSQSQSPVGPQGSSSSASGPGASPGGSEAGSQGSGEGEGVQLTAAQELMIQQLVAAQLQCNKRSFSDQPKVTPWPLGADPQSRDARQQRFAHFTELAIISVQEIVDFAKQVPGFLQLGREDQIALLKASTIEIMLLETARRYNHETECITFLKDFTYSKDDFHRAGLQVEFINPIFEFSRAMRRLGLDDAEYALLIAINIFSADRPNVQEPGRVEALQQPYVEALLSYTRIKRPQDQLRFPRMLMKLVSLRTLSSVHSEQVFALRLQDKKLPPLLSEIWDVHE

cells [32] = experiment: cells
[33] = target: T6, Heat shock factor protein 1 (Mus musculus, UniProt P38532); experiment: inhibition of MG132-induced HSE-luciferase signal, confirmation, cell-based, NIH3T3, luminescence, dose retest (AID 2382); format: functional;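 further: NIH3T3 fibroblasts with HSF1-driven luciferase reporter stressed by proteasome inhibitor MG132; luminescence from HSF1-driven luciferase expression after 8 hours of MG132 stress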
T6 sequence (P38532 whole entry): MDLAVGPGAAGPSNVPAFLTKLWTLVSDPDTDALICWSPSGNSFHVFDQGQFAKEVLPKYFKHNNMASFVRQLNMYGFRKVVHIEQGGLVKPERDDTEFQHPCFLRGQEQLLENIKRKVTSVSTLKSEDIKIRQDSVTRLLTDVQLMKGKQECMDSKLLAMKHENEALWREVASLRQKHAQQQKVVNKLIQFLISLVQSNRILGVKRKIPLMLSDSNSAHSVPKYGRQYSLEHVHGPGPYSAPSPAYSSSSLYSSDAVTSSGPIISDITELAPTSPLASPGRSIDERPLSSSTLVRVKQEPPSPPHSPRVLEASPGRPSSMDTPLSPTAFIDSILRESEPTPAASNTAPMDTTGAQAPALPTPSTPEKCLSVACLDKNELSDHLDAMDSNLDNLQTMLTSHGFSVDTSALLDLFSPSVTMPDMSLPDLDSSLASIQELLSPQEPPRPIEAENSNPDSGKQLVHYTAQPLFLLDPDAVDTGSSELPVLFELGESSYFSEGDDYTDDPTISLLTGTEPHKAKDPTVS

COc1cccc(-c2cccc(-c3nc(C(=O)Nc4ccc(-c5ccccc5)cc4)cc4c3[C@@H](CCO)N([S+]([O-])C(C)(C)C)C4)c2)c1 (stereo partly drawn)
AC50 [1]: 2.71 µM (active) | AC50 [2]: 15.2 µM (active)

N#Cc1ccccc1NC(=O)C1SC(Nc2ccccc2)=C(C(=O)Nc2ccc(Cl)cc2)C1=N (stereo not drawn)
IC50 [3]: 6.4 µM (active) | IC50 [4]: 8.77 µM (active)

C=CCOC(=O)CCCCCCCC
AC50 [5]: 79.4 µM (inconclusive)

COc1ccccc1NC(=O)N1CCCCN2[C@@H](CO)[C@H](c3ccc(C#CC4CCCC4)cc3)[C@@H]2C1
AC50 [1]: 1.98 µM (active) | AC50 [6]: 10.6 µM (active) | AC50 [7]: 0.458 µM (active) | AC50 [8]: 0.425 µM (active) | AC50 [2]: 17.4 µM (active) | AC50 [9]: 0.386 µM (active)

C[C@@H]1CN([C@@H](C)CO)C(=O)c2cc(NC(=O)Nc3ccc(C(F)(F)F)cc3)ccc2O[C@H]1CN(C)CC1CCCCC1
AC50 [1]: 10.6 µM (active) | AC50 [2]: 22 µM (active)

COC(=O)C(C)Sc1nnc(S)s1 (stereo not drawn)
IC50 [10]: 15.8 µM (active) | IC50 [11]: > 100 µM (inactive)

CNCC(O)c1ccc(O)c(O)c1 (stereo not drawn) [RACEPINEPHRINE HYDROCHLORIDE]
IC50 (cells [12]): > 67.6 µM (inactive) | EC50 [13]: 1.39 µM (active) | AC50 [5]: 12.6 µM (inconclusive) | IC50 [14]: > 67.6 µM (inactive)

CCn1c(=O)n(CC)c2cc(N3CCCC3)c(NC(=O)c3cc(Br)ccc3OC)cc21
EC50 [15]: 7.36 µM (active) | EC50 [16]: 0.99 µM (active) | EC50 [17]: 12 µM (active) | EC50 (Streptokinase A): 18.5 µM (active) | EC50 (Streptococcus): 11.2 µM (active) | CC50 [18]: 16.4 µM (active) | CC50 [19]: 37.6 µM (active)

NC(=O)c1c(NC(=O)c2ccc([N+](=O)[O-])o2)sc2c1CCCC2
EC50 [20]: 7.76 µM (active) | IC50 (Beta-galactosidase [21]): > 66.6 µM (inactive) | EC50 [22]: 47.5 µM (active) | EC50 [23]: 13.3 µM (active)

CC(=O)n1cc([C@@H]2C=C(C(=O)N3CCN(Cc4ccc5c(c4)OCO5)CC3)O[C@H](OCCCCO)C2)c2ccccc21
CC50 [19]: > 40 µM (active)

Cc1cc(-c2nnc(S)n2CC(C)C)cs1
IC50 [10]: 5.87 µM (active) | IC50 [11]: > 100 µM (inactive)

CC1=NC(Nc2nc(C)c3ccccc3n2)=NC(C)(C)C1
EC50 (Beta-galactosidase [24]): > 40 µM (inactive) | IC50 [25]: 13 µM (active)

CC(C)CCn1c(N)c(C(=O)OCC2CCCO2)c2nc3ccccc3nc21 (stereo not drawn)
EC50 (Beta-galactosidase [24]): > 40 µM (inactive) | IC50 [25]: > 40 µM (not active)

Cc1ccc(-c2cc(-c3ccccc3)nc(NN)n2)cc1
AC50 [26]: 5.4 µM (active) | EC50 (Beta-galactosidase [24]): > 40 µM (inactive) | IC50 [25]: 6.66 µM (active)

Nc1ccc(S(=O)(=O)Nc2nccc(/C=C/c3cccc(Br)c3)n2)cc1
IC50 (HEK293 [27]): 7.62 µM (active) | IC50 (HEK293 [28]): > 20 µM (inactive) | IC50 (HEK293 [29]): 12.8 µM (active) | EC50 (HEK293 [30]): 8.24 µM (active)

Cc1ccc2[nH]c(-c3sc4nc(C)cc(C)c4c3N)nc2c1
EC50 [31]: > 67.5 µM (inactive) | EC50 (cells [32]): > 67.5 µM (inactive) | EC50 [33]: 21 µM (active)

CN1C(=O)CCC1c1cccnc1 (stereo not drawn)
AC50 [5]: 3.16 µM (inconclusive)

From ChEMBL document CHEMBL1201862, “PubChem BioAssay data set” (2004)
